One experiment concerns the target T1, mTOR (Homo sapiens, UniProt P42345).
T1 construct: mTOR protein was isolated from HeLa cell cytoplasmic extract by immunoprecipitation; endogenous in cells; host or cells: HeLa cell cytoplasmic extract (immunoprecipitate)
The experiment can be described thus: Biological Assay: mTOR enzyme activity, mTOR immunoprecipitated from HeLa cell cytoplasmic extract, recombinant PHAS-1 as substrate. In kind it is biochemical. The settings on record: Biological Assay, upper bounds; read-out: IC50 values against mTOR.

The next experiment relates to T47D cells. Put plainly: Cell Proliferation Assay (GI50), sulforhodamine B (SRB) assay. In kind it is cell-based. The settings on record: Homo sapiens, 120 hours, SRB. Here is the method: Cell growth was assessed using the sulforhodamine B (SRB) assay (A). T47D (ECACC, 85102201) cells were routinely passaged in RPMI (Invitrogen, 42401018) plus 10% foetal calf serum (FCS), 1% L-glutamine (Gibco BRL, 25030) to a confluence not greater than 80%. To undertake the assay, T47D cells were seeded at 2.5×10^3 cells/well in […] RPMI plus 10% foetal calf serum, 1% L-glutamine in 96 well plates (Costar, 3904) and incubated at 37° C. (+5% CO2) in a humidified incubator. Once the cells had fully adhered (typically following 4-5 hours incubation) the plate was removed from the incubator and 10 μL of the diluent added to the control wells (A1-12 and B1-12). Compound was prepared in a six point semi-log dilution at 10× the final concentration required e.g. for a 6 point range of 30 μM to 100 nM in semi-log steps dilution started at 300 μM in stock plate. Dosing was completed by addition of 10 μL of compound at highest concentration to C1-12 through to the lowest concentration in H1-12. The plates were then incubated for 120 hours prior to SRB analysis.
Upon completion of incubation, media was removed and the cells fixed with […] of ice cold 10% (w/v) trichloroacetic acid. The plates were incubated at 4° C. for 20 minutes and then washed four times with water. Each well of cells was then stained with 100 μl of 0.4% (w/v) SRB (Sulforhodamine B, Sigma, Poole, Dorset, UK, Catalogue number S-9012) in 1% acetic acid for 20 minutes before washing four times with 1% acetic acid. Plates were then dried for 2 hours at room temperature. The dye from the stained cells was solubilized by the addition of 100 μl of 10 mM Tris Base into each well. Plates were gently shaken and left at room temperature for 30 minutes before measuring the optical density at 564 nm on a Microquant microtiter plate reader. The concentration of inhibitor eliciting a 50% reduction in growth (GI50) was determined by analysis of staining intensity of the treated cells as a percentage of the vehicle control wells using Excelfit software.
(A) Skehan, P., Storung, R., Scudiero, R., Monks, A., McMahon, J., Vistica, D., Warren, J. T., Bokesch, H., Kenny, S. and Boyd, M. R. (1990) New […] cytotoxicity assay for anticancer-drug screening. J. Natl. Cancer Inst. 82, 1107-1112.

Excerpt for mTOR: For mTOR enzyme activity assays, mTOR protein was isolated from HeLa cell cytoplasmic extract by immunoprecipitation, and activity determined essentially as described previously using recombinant PHAS-1 as a substrate (ref. 21).

For orientation: IC50 means the midpoint of a concentration-inhibition curve. Broadly, the GI50 is the concentration at which growth is held to half of that of the control. Read a low GI50 as more potent growth inhibition. As for `COc1ccc(-c2ccc3c(N4CCOCC4)nc(N4C[C@@H](C)O[C@@H](C)C4)nc3n2)cc1CNCCC(C)(C)C` [Example 8q], the IC50 on mTOR is under 1000 nM. This compound also returned a concentration for 50% growth inhibition (GI50) with T47D cells of under 1000 nM.

As to `COc1ccc(-c2ccc3c(N4CCOCC4)nc(N4C[C@@H](C)O[C@@H](C)C4)nc3n2)cc1CNC1CCCCC1` [Example 8o], on mTOR, the half-maximal inhibitory concentration (IC50) is under 100 nM. The 50% growth inhibitory concentration (GI50) in the experiment on T47D cells is under 1000 nM.

`COCCNCc1cc(-c2ccc3c(N4CCOCC4)nc(N4C[C@@H](C)O[C@@H](C)C4)nc3n2)ccc1OC` [Example 8v]: the IC50 on mTOR was under 1000 nM. In the experiment with T47D cells, this compound displayed a 50% growth inhibitory concentration (GI50) of under 1000 nM.

Turning to `COc1ccc(-c2ccc3c(N4CCOCC4)nc(N4C[C@@H](C)O[C@@H](C)C4)nc3n2)cc1CNc1ccc(OCc2ccccc2)cc1` [Example 8ba], on mTOR, the IC50 was under 1000 nM. In the experiment on T47D cells (upper bounds), this compound registered a 50% growth inhibitory concentration (GI50) of under 300 nM.

On to `COc1ccc(-c2ccc3c(N4CCOCC4)nc(N4C[C@@H](C)O[C@@H](C)C4)nc3n2)cc1CN[C@H](C)c1ccc([N+](=O)[O-])cc1` [Example 8au], for which the 50% inhibitory concentration (IC50) on mTOR is under 1000 nM. This compound also returned a GI50 with T47D cells (upper bounds) of under 300 nM.

Take `COC(=O)[C@H](NCc1cc(-c2ccc3c(N4CCOCC4)nc(N4C[C@@H](C)O[C@@H](C)C4)nc3n2)ccc1OC)c1ccccc1` [Example 8ao]: the half-maximal inhibitory concentration (IC50) on mTOR is under 1000 nM. The compound also had a GI50 in the experiment on T47D cells (upper bounds) of under 300 nM.

On to `COc1ccc(-c2ccc3c(N4CCOCC4)nc(N4C[C@@H](C)O[C@@H](C)C4)nc3n2)cc1CNCCC(C)C` [Example 8m], for which, at mTOR, the IC50 was under 100 nM. Further, the GI50 with T47D cells was under 1000 nM.

Turning to `COc1ccc(-c2ccc3c(N4CCOCC4)nc(N4C[C@@H](C)O[C@@H](C)C4)nc3n2)cc1CNC(Cc1ccc(O)cc1)C(=O)O` (some centres unmarked) [Example 8ar], the 50% inhibitory concentration (IC50) at mTOR was under 100 nM. In the experiment on T47D cells (upper bounds), this compound returned a GI50 of under 300 nM.

For the compound `COC[C@H](Cc1ccccc1)NCc1cc(-c2ccc3c(N4CCOCC4)nc(N4C[C@@H](C)O[C@@H](C)C4)nc3n2)ccc1OC` [Example 8be], on mTOR, the half-inhibitory concentration (IC50) was under 100 nM. Further, in the experiment with T47D cells (upper bounds), the GI50 was under 300 nM.

As for `C[C@@H]1CN(c2nc(N3CCOCC3)c3ccc(-c4ccco4)nc3n2)C[C@H](C)O1` [Example 1r], the concentration for half-maximal inhibition (IC50) at mTOR is under 1000 nM. In the experiment with T47D cells, this compound showed a GI50 of 232 nM.

For the compound `COc1ccc(-c2ccc3c(N4CCOCC4)nc(N4C[C@@H](C)O[C@@H](C)C4)nc3n2)cc1CNC1CCCCC1C` (some centres unmarked) [Example 8w], the IC50 on mTOR is under 1000 nM. For the same compound, in the experiment on T47D cells, the concentration for 50% growth inhibition (GI50) was under 1000 nM.

Turning to `COc1ccc(-c2ccc3c(N4CCOCC4)nc(N4C[C@@H](C)O[C@@H](C)C4)nc3n2)cc1CNCCSCc1ccc(CN(C)C)o1` [Example 8ae], the half-inhibitory concentration (IC50) at mTOR is under 1000 nM. Further, in the experiment on T47D cells (upper bounds), the GI50 is under 300 nM.

Regarding `COc1ccc(CCNCc2cc(-c3ccc4c(N5CCOCC5)nc(N5C[C@@H](C)O[C@@H](C)C5)nc4n3)ccc2OC)cc1` [Example 8e], the half-maximal inhibitory concentration (IC50) on mTOR was under 100 nM. The same compound came in with a GI50 in the experiment on T47D cells of under 1000 nM.

With `COc1ccc(-c2ccc3c(N4CCOCC4)nc(N4C[C@@H](C)O[C@@H](C)C4)nc3n2)cc1CNC1CCc2ccccc21` (some centres unmarked) [Example 8av], at mTOR, the IC50 was under 100 nM. The GI50 with T47D cells (upper bounds) was under 300 nM.

Take `COc1ccc(-c2ccc3c(N4CCOCC4)nc(N4C[C@@H](C)O[C@@H](C)C4)nc3n2)cc1CNC1CCOCC1` [Example 8i]: the IC50 on mTOR was under 100 nM. In addition, the GI50 with T47D cells (upper bounds) is under 300 nM.

Turning to `COc1ccc(-c2ccc3c(N4CCOCC4)nc(N4C[C@@H](C)O[C@@H](C)C4)nc3n2)cc1CNCCC1CCCN1C` (some centres unmarked) [Example 8ai], at mTOR, the IC50 is under 100 nM. The compound also showed a GI50 in the experiment on T47D cells (upper bounds) of under 300 nM.

`COc1ccc(-c2ccc3c(N4CCOCC4)nc(N4C[C@@H](C)O[C@@H](C)C4)nc3n2)cc1CNC(=S)N1CCCCC1` [Example 8am]: at mTOR, the IC50 was under 1000 nM. For the same compound, the 50% growth inhibitory concentration (GI50) with T47D cells (upper bounds) is under 300 nM.

With `C#CC1(NCc2cc(-c3ccc4c(N5CCOCC5)nc(N5C[C@@H](C)O[C@@H](C)C5)nc4n3)ccc2OC)CCCCC1` [Example 8x], the half-maximal inhibitory concentration (IC50) on mTOR is under 1000 nM. Besides, in the experiment with T47D cells, the GI50 is under 1000 nM.

For `COc1ccc(-c2ccc3c(N4CCOCC4)nc(N4C[C@@H](C)O[C@@H](C)C4)nc3n2)cc1CNCc1cccc(OC)c1OC` [Example 8z], at mTOR, the half-maximal inhibitory concentration (IC50) is under 10000 nM. In the experiment on T47D cells, this compound displayed a concentration for 50% growth inhibition (GI50) of under 1000 nM.

Values taken from patent US20080194546A1, “Pyrido-, Pyrazo- and Pyrimido-Pyrimidine Derivatives as mTOR Inhibitors” (KuDOS Pharmaceuticals Limited, priority 2005, published 2008).
